Measurements: US20170072012A1, “USE OF GSMTX4 TO REDUCE ISCHEMIA REPERFUSION INJURY” (priority 2014, published 2017)
Like-named read-outs stand apart in the source and are kept apart here. Where a SMILES comes first, the peptide text is derived from it. Bridges are numbered along the chain shown (N, C = ends). [ ]: non-standard residue; d: D form.

Key:
[1] = system: ischemic reperfusion injury in mouse heart; type: in vivo, C57B1/6J mice; conditions: for myocardial infarction (infarct area / AAR): 4 h reperfusion, vehicle 16.5±1.2%
Procedure: Acute GsMTx4-D treatment: All animal protocols in this study were approved by the Institutional Animal Care and Use Committee of the University at Buffalo-State University of New York. C57B1/6J mice were anesthetized with 80 mg/kg of sodium pentobarbital (Sigma, St. Louis, Mo.) via intraperitoneal injection (IP), intubated and ventilated with a respirator (Harvard apparatus, Holliston, Mass., USA) 17. Upon absence of a pedal reflex, surgery was performed under a stereomicroscope. Core body temperature was maintained at 37° C. with a heating pad. After a left lateral thoracotomy, the left anterior descending coronary artery (LAD) was occluded just underneath the left atrium for 20 min with an 8-0 nylon suture. […] A small piece of gauze was used to prevent arterial injury. After 20 min the ligature was removed and the tissue was reperfused for up to 4 h before euthanizing. Three different doses of GsMTx4-D (0.1, 1, 10 mg/kg), verapamil (0.4 mg/kg) or vehicle (saline 50 μL) were administered via tail vein injection 5 min before reperfusion (during induced ischemia). ECGs confirmed the hallmark ischemic ST segment elevation during coronary occlusion (AD Instruments, Colorado Springs, CO, USA). Each group included 5 independent experiments. At the conclusion of the study, mice were euthanized by IP injection of 270 mg/kg pentobarbital. GsMTx4-D pretreatment: To evaluate the effect of GsMTx4-D pretreatment, GsMTx4-D (50 mg/kg) or vehicle (saline 50 μL) were administered via IP injection once daily for 2 days prior to surgery. Ischemia was then elicited with the same 20 min coronary occlusion followed by 24 h reperfusion. Following reperfusion, the chest was closed in layers. A drop of lidocaine was put on the suture site and the mouse was slowly weaned off the ventilator when they resumed spontaneous breathing. The mouse was returned to its cage and kept warm and medicated for pain (buprenorphine). Each group included 5 independent experiments.
To measure infarct size, hearts were harvested and excised for dual staining at the conclusion of reperfusion. The non-necrotic tissue in the ischemic region was stained red with 2,3,5- triphenyltetrazolium (TTC) and non-ischemic regions were stained blue with Evans blue. The hearts were fixed and sectioned into 1 mm slices, photographed with a Lexica MZ95 microscope and analyzed with NIH ImageJ software (http://imagej.nih.gov/ij/) 19. The infarct size was calculated as the ratio of the percentage of myocardial necrosis to the ischemic Area At Risk (AAR).
To test whether GsMTx4-D protected the heart against reperfusion injury, we first tested three different doses of the peptide. The positive control was verapamil, a voltage-gated calcium channel inhibitor with established cardioprotective effects on IRI. C57B1/6 mice were subjected to 20 min occlusion of the LAD followed by 4 hours of reperfusion. Three different concentrations of GsMTx4-D (0.1, 1 and 10 mg/kg), verapamil (0.4 mg/kg), or vehicle (saline) were administered through tail vein injection 5 min before reperfusion. […] At the conclusion of reperfusion, the hearts were stained with TTC and Evans Blue (FIG. 2A). […] The verapamil group also had lower infarction size (14.0±0.4%), but the difference wasn't statistically significant. […] To evaluate whether pretreatment with GsMTx4-D could also protect the heart from I/R injury, GsMTx4-D (50 mg/kg) or vehicle (saline 50 μL) were administered daily via IP injection, for 2 days prior to I/R surgery. As before, ischemia was induced from 20 min LAD occlusion, but reperfusion was allowed to continue for 24 hrs. The chest was closed in layers, and animals were weaned off the ventilator when they resumed spontaneous breathing. […] The ratios of AAR to total myocardial area between the two groups were equal as determined by TTC and Evans Blue staining (FIG. 3A and B). […]

[2] = system: ischemic reperfusion injury in mouse heart; test: In vivo pressure-volume relationships after I/R (left ventricular catheterization); set-up: species or system C57B1/6J mice; conditions: 50 mg/kg IP pretreatment, 24 h reperfusion
Procedure: In order to determine hemodynamic differences, we measured the pressure-volume (P-V) relationships in real time in 3 groups of mice, including a sham group that was exposed to the open heart operation but not FR, and the two I/R (20min ischemia/24h reperfusion) induced groups pretreated with either vehicle or GsMTx4-D. To measure the P-V relationships, mice were anesthetized with 4% isoflurane and 100% O2, quickly intubated and ventilated with a respirator. […] The rib cage was slightly retracted and the diaphragm was gently cut away to attain an apical view of the myocardium. A 27-gauge needle was inserted into the apex of the LV free wall to create a guide-hole. A 1.2-French microtransducer pressure-volume impedance catheter (Scisense, London, ON, CA) was then inserted into the lumen of LV to assess real-time LV function. Hemodynamic parameters such as heart rate, cardiac output, and ejection fraction were measured and calculated with the iWorx software (Dover, N.H.). Each group included 5 (sham and GsMTx4-D) to 6 (vehicle) independent experiments.
To examine the effects of GsMTx4-D on hemodynamics, we compared the P-V relationships between the GsMTx4-D (50 mg/kg) and vehicle (saline 50 μL) in pretreated mice. After 20 min of ischemia followed by 24 h reperfusion, the left ventricle was catheterized to acquire real time P-V relationships (FIG. 3). […] In addition, GsMTx4-D produced improvements in both end systolic and diastolic volumes (FIG. 3 H and I) that led to a significant improvement in ejection fraction (61.7±3.4%, P<0.05) (FIG.3 G). Clearly, GsMTx4-D improves heart function after FR.

[3] = Single-dose pharmacokinetic study, plasma and heart concentration by LC/MS/MS; type: in vivo, CD-1 mice; conditions: based on the PK analysis

Which “myocardial infarction (infarct area / AAR)” value ([1]; 1.0 mg/kg tail vein 5 min before reperfusion) does the source give for `CC(C)C[C@H]1NC(=O)[C@H](NC(=O)CN)CSSC[C@H]2NC(=O)[C@H]3CSSC[C@H](C(=O)N[C@H](CC(N)=O)C(=O)N[C@H](Cc4ccccc4)C(=O)N[C@H](CO)C(=O)N[C@H](Cc4ccccc4)C(N)=O)NC(=O)[C@@H](CC(C)C)NC(=O)[C@@H](CCCCN)NC(=O)[C@@H](Cc4ccccc4)NC(=O)[C@@H](CC(C)C)NC(=O)[C@@H](CCCCN)NC(=O)[C@@H](CO)NC(=O)[C@@H](CSSC[C@@H](NC(=O)[C@@H](CCCCN)NC(=O)[C@@H](Cc4c[nH]c5ccccc45)NC(=O)[C@@H](Cc4c[nH]c5ccccc45)NC(=O)[C@@H](Cc4ccccc4)NC(=O)[C@@H](CCC(=O)O)NC1=O)C(=O)N[C@H](CC(N)=O)C(=O)N1CCC[C@@H]1C(=O)N[C@H](CC(N)=O)C(=O)N[C@H](CC(=O)O)C(=O)N[C@H](CC(=O)O)C(=O)N[C@H](CCCCN)C(=O)N3)NC(=O)[C@@H](CCCCN)NC(=O)[C@@H](CC(C)C)NC(=O)[C@@H](CCCCN)NC(=O)[C@H]1CCCN1C(=O)[C@@H](CCCNC(=N)N)NC2=O` [GsMTx4-D] (H-G[dC][dL][dE][dF][dW][dW][dK][dC][dN][dP][dN][dD][dD][dK][dC][dC][dR][dP][dK][dL][dK][dC][dS][dK][dL][dF][dK][dL][dC][dN][dF][dS][dF]-NH2; disulfide 2-17, 9-23, 16-30 (inferred); N-terminus and C-terminus assumed) here?
The value was 9.9±1.3%.

And the “myocardial infarction (infarct area / AAR)” value ([1]; 10 mg/kg tail vein 5 min before reperfusion)?
The value was 12.4±0.5%.

And the side-effects from pretreatment ([1]; 50 mg/kg IP daily for 2 days)?
Its side-effects from pretreatment is “did not detect any side-effects”.

And the “infarction size (infarct area / AAR)” value ([1]; 50 mg/kg IP daily for 2 days prior to surgery, 24 h reperfusion, vehicle 16.8±1.1%)?
Its value is 10.5±0.7%.

What about the “death or morbidity in acute I/R treatment” value ([1]; 0.1, 1 and 10 mg/kg tail vein injection) of the same compound?
Its value is “no death or morbidity observed”.

And the “toxicity in the heart during these studies” value ([1]; acute IV and IP pretreatment I/R studies)?
The value was “no overt signs of toxicity”.

And the stroke volume ([2]; vehicle 18.9±2.3, sham 26.7±1.9)?
The stroke volume was 26.2 ± 1.9 µL.

And the ejection fraction ([2]; vehicle 44.4±4.9, sham 75.5±6.4)?
Its ejection fraction is 61.7±3.4%.

And the heart rate ([2]; vehicle 243.9±6.9, sham 304.0±23.6)?
Its heart rate is 298.7±14.3 bpm.

And the cardiac output ([2]; vehicle 4636±602, sham 8039±690)?
Its cardiac output is 77580 ± 321 µL/min.

What about the “end systolic and diastolic volumes” value ([2]; vs vehicle) of the same compound?
The value was “improvements”.

What about the “predicted concentration in the heart at the time of reperfusion” value ([3]; after the 1 mg/kg IV injection during ischemia) of the same compound?
Its value is < 0.5 µM.

What about the “predicted concentration in the heart at the time of reperfusion” value ([3]; after two IP pretreatments (50 mg/kg)) of the same compound?
The value was 1 to 2 µM.
